Source: patent publication US4620014A, “2-furylbutyrolactones and methods for using same” (priority 1983, dated 1986)

Tests used:
L-1210 leukemia = test: Anti-cancer study, L-1210 leukemia in BDF1 mice; assay type: in vivo, mouse; conditions: 20 mg/kg, seven days (Table 25)
Text: Mice of the BDF1 strain are given an i.p. inoculation of 10^6 L-1210 leukemia cells on day 0. Twenty-four hours later, groups of 7 mice each are started on a […] treatment regimen of various doses of the compounds of this invention. The experiment is continued according to the guidelines provided under the National Cancer Institute protocol for screening new anti-cancer agents and T/C ratios (median or mean survival time of treated groups over median or mean survival time of controls) are calculated. A T/C value ≥1.25 (or 125%) is considered significant anticancer activity.
(§1) Mice of the BDF1 strain, inoculated with L-1210 leukemia cells, are treated for seven days with either 25, 50, 100, 200 or 400 mg/kg of Cpd. 1 or just buffer. The National Cancer Institute protocol for screening new anti-cancer agents is followed and T/C ratios are calculated.
as §1, with “either 100” for “either 25, 50, 100, 200 or 400”, “Cpd. 1, 20 mg/kg of 5-fluorouracil (5-FU), a known anti-cancer agent,” for “Cpd. 1”

[1] = tested on: spleen lymphocytes of C57BL/6 mice; test: In vivo treatment, lymphocyte stimulation assay, C57BL/6 mice; conditions: 4 days
Experimental: (§2) The purpose of this assay is to challenge lymphocytes in microcultures with one or more polyclonal mitogens at concentrations that will induce mitogenesis within 72 hours of stimulation.
(§3) In the mouse model, spleens are removed from different strains of mice and the spleen cells are teased free and suspended in RPMI-1640 tissue culture medium at a concentration of usually 1×10^7 ml. These cells are dispensed at a concentration of 5.0×10^5 cells per microculture well in a 96 well flat bottom 96 well tissue culture plate. All testing of the compounds of this invention or mitogens are done in replicates of 10. The cells are then treated with PHA, Con-A, specific antigens, or buffer only. If in vitro testing is done, varying concentrations of the compounds of this invention or buffer only are added to the cells as well. After treatment with the mitogens and/or compounds of this invention, the cells are incubated for 72 hours. The response of these cells to mitogens and/or the compounds of this invention is assessed using ^14 C-thymidine labeling on the fourth day at a concentration of 0.01 μCi/well. The labeled cells are harvested using a lymphocyte harvestor and placed onto fibrous paper discs. A scintillation cocktail is added to vials contaning the discs and the results are obtained using a LKB-liquid scintillation counter (Model 1216/Rackbeta II). The data is expressed as a ratio of the cpm of the mitogen stimulated group to the control (non-mitogen) treated group=lymphocyte stimulation index (LSI).
(§4) The lymphocyte stimulation assay may be performed directly on spleen cells obtained from various strains of mice not treated with the compounds of this invention or on lymphocytes obtained from […]. […] Alternatively, the mice may be treated in vivo with the compounds of this invention by intraperitoneal multi-dose schedules, followed by sacrifice and harvesting spleen lymphocytes. These cells are then tested for their response to polyclonal mitogens or specific antigens used to immunize the mice. In this sytem however, no additional compound is added to the in vitro lymphocyte stimulation assay system.
Two strains of mice, C57BL/6 and BDF1 are treated for seven days with i.p. administration of either 25, 50, 100, 200, or 400 mg/kg of Cpd. 1 or just buffer. This is followed on the eighth day by a lymphocyte stimulation assay.
A comparison is made of the lymphocyte response to C57BL/6 mice treated 4 days with i.p. administration of either 50, 100, 200, 400 or 800 mg/kg of Cpd. 1, 50, 100, 200, 400 or 800 mg/kg of ascorbic acid (AA), or just buffer. This is followed on the fifth day by a lymphocyte stimulation assay.
Two strains of mice, C57BL/6 and BALB/c, are treated 4 days with i.p. administration of either 50, 100, 200, or 400 mg/kg of Cpd. 1, or just buffer. This is followed on the fifth day by a lymphocyte stimulation assay.
C57BL/6 mice were treated with four daily i.p. doses of either 50, 100, 200, or 400 mg/kg of Cpd. 1 or just buffer. On the fifth day a lymphocyte stimulation assay was performed.
Mice of the C57BL/6 strain were tested with i.p. administration of either 100, 200, 400 or 600 mg/kg of Cpd. 1 or just buffer. This was followed by removal of spleens and treatment of lymphocytes therein with mitogens PHA and Con-A.
The compound of Example 2, Cpd. 2, was tested in vivo by using C57BL/6 mice and treating them with […] or just buffer for four consecutive days by the i.p. route. On the fifth day a lymphocyte stimulation assay was performed.

human lymphocytes = test: In vitro lymphocyte stimulation assay in humans; assay type: cell-based; conditions: 0.1-100 μg/well, PHA and Con-A
Experimental: as §2, §3
as §4, with “In this sytem however, no additional compound is added to the in vitro lymphocyte stimulation assay system.” left out

[2] = tested on: spleen lymphocytes from C57BL/6 mice; test: In vitro lymphocyte stimulation assay, C57BL/6 spleen lymphocytes; assay type: cell-based, mouse
Experimental: as §2, §3, §4
An in vitro lymphocyte stimulation assay is performed directly on normal spleen lymphocytes removed from five normal C57BL/6 mice, using concentrations of Cpd. […] Following three days of incubation the assay is completed.
An in vitro lymphocyte stimulation assay was performed using spleen lymphocytes from normal C57BL/6 mice. The lymphocytes were treated with either 1, 5, 10, 50, or 100 μg/well of Cpd. 1 or buffer.
Cpd. 2 was tested using normal spleen lymphocytes from C57BL/6 mice. A lymphocyte stimulation assay was conducted using either 1, 5, 10, 50, or 100 μg/well […] or just buffer.
Spleen cells from C57BL/6 mice were treated, in vitro, with the crystallizing reagents, succinic acid and succinimide. Since these compounds are spontaneously released from the molecular complex in solution at a molar ratio of 2 moles of Cpds. 1, 2, or 3 per mole of the crystalline reagent, these reagents were treated in the lymphocyte stimulation assay at proper molar concentrations.
The compound of example 3, Cpd. 3, was used to treat C57BL/6 spleen lymphocytes in vitro. The lymphocytes were treated with either 1, 5, 10, 50, or 100 μg/well of Cpd. 3 or just buffer and then a lymphocyte stimulation assay was performed.

O=c1[nH]cc(F)c(=O)[nH]1 [5-FU, 5-fluorouracil, reference compound]
Median Survival Time (L-1210 leukemia): 30

O=C1O[C@H]([C@@H](O)CO)C(O)=C1O [AA, ascorbic acid, reference compound]
proliferation with Con-A ([1]; 50 mg/kg i.p.): stimulation of proliferation
effect with PHA ([1]; 50-800 mg/kg i.p.): No statistically significant measurable effect
proliferative or anti-proliferative effect (human lymphocytes): no significant proliferative or anti-proliferative effect

CN1C(=O)CCC1=O.Cc1ccc(C2(O)C(=O)OC3C(O)COC32O)o1.Cc1ccc(C2(O)C(=O)OC3C(O)COC32O)o1 (stereo not shown) [Cpd. 3]
Lymphocyte Stimulation Index, Con-A ([2]; 1 μg/well in vitro): 73.2
Lymphocyte Stimulation Index, Control (no mitogen) ([2]; 1 μg/well in vitro): .60
Lymphocyte Stimulation Index, PHA ([2]; 1 μg/well in vitro): 12.5
Lymphocyte Stimulation Index, Con-A ([2]; 5 μg/well in vitro): 80.9
Lymphocyte Stimulation Index, Control (no mitogen) ([2]; 5 μg/well in vitro): .64
Lymphocyte Stimulation Index, PHA ([2]; 5 μg/well in vitro): 18.5
response to PHA ([2]; 10 μg/well): significantly stimulated the response
Lymphocyte Stimulation Index, Con-A ([2]; 10 μg/well in vitro): 89.6
Lymphocyte Stimulation Index, Control (no mitogen) ([2]; 10 μg/well in vitro): .47
Lymphocyte Stimulation Index, PHA ([2]; 10 μg/well in vitro): 24.0
response to Con-A ([2]; 50 μg/well): slightly stimulated the response
Lymphocyte Stimulation Index, Con-A ([2]; 50 μg/well in vitro): 97.2
Lymphocyte Stimulation Index, Control (no mitogen) ([2]; 50 μg/well in vitro): .27
Lymphocyte Stimulation Index, PHA ([2]; 50 μg/well in vitro): 4.08
response to Con-A ([2]; 100 μg/well): suppressed the response
Lymphocyte Stimulation Index, Con-A ([2]; 100 μg/well in vitro): 2.88
Lymphocyte Stimulation Index, Control (no mitogen) ([2]; 100 μg/well in vitro): .25
Lymphocyte Stimulation Index, PHA ([2]; 100 μg/well in vitro): 0.263
response to PHA ([2]; 50 and 100 μg/well): suppressed the response

O=C(O)CCC(=O)O [Succinic Acid, succinic acid, reference compound]
Lymphocyte Stimulation Index, Con-A ([2]; 1.04 μg/well in vitro): 64.6
Lymphocyte Stimulation Index, Control (no mitogen) ([2]; 1.04 μg/well in vitro): .94
Lymphocyte Stimulation Index, PHA ([2]; 1.04 μg/well in vitro): 15.7
Lymphocyte Stimulation Index, Con-A ([2]; 2.08 μg/well in vitro): 51.1
Lymphocyte Stimulation Index, Control (no mitogen) ([2]; 2.08 μg/well in vitro): 1.0
Lymphocyte Stimulation Index, PHA ([2]; 2.08 μg/well in vitro): 15.3
Lymphocyte Stimulation Index, Con-A ([2]; 4.15 μg/well in vitro): 42.3
Lymphocyte Stimulation Index, Control (no mitogen) ([2]; 4.15 μg/well in vitro): .91
Lymphocyte Stimulation Index, PHA ([2]; 4.15 μg/well in vitro): 14.0
Lymphocyte Stimulation Index, Con-A ([2]; 8.3 μg/well in vitro): 35.6
Lymphocyte Stimulation Index, Control (no mitogen) ([2]; 8.3 μg/well in vitro): .91
Lymphocyte Stimulation Index, PHA ([2]; 8.3 μg/well in vitro): 12.4
Lymphocyte Stimulation Index, Con-A ([2]; 16.6 μg/well in vitro): 38.5
Lymphocyte Stimulation Index, Control (no mitogen) ([2]; 16.6 μg/well in vitro): 1.1
Lymphocyte Stimulation Index, PHA ([2]; 16.6 μg/well in vitro): 11.5
PHA and Con-A mitogenesis ([2]; with increased dosage, 1.04-16.6 μg/well): decrease in PHA and Con-A mitogenesis

O=C1CCC(=O)N1 [Succinimide, succinimide, reference compound]
Lymphocyte Stimulation Index, Con-A ([2]; 13.92 μg/well in vitro): 92.9
Lymphocyte Stimulation Index, Control (no mitogen) ([2]; 13.92 μg/well in vitro): 1.4
Lymphocyte Stimulation Index, PHA ([2]; 13.92 μg/well in vitro): 17.1
effect on response to either mitogen ([2]; 0.87-13.92 μg/well): no significant suppressive or enhancing effect
